Assay results as given in patent US10242153B2, “Method for determining the risk profile of neoplastic tissue” (NOVAZOI THERANOSTICS, priority 2014, dated 2019).

How the values were obtained:
[1] = tested on: MDA-MB-231 (231) cells; experiment: Peak subG1 fraction by flow cytometry (propidium iodide) after declustering drugs, 231 cells; assay type: cell-based, human
Protocol: (§1) To evaluate the impact of putative declustering drugs on cell cycle progression and hypodiploidy (<2N DNA content, which may indicate apoptotic cells), MDA-MB-231 (231), PC3, and HeLa cells were treated with different concentrations of declustering drugs, stained with propidium iodide, labeled with anti-MPM2 antibody, and then assessed by flow cytometry at multiple time points over 48 hr. […] The duration, highest degree, and rapidity of onset of MA varied between drugs, drug concentrations, and cell lines (data not shown). In general, the maximum MA achieved was less pronounced in Nos- and PJ-treated cells. Drug-induced onset of MA was corroborated by substantial increases in cyclin B1 levels in all cell lines. For most cases, prolonged MA (˜24 hr in duration) was followed by a substantial increase in the subG1 population fraction. […] Instances where the subGl fraction was elevated without cleaved caspase-3 may either represent caspase-independent cell death or the presence of hypodiploid cells whose fate is unclear. In general, no consistent associations between the extent, duration, or timing of MA within drugs or across cell lines was found.

[2] = tested on: HeLa cells; experiment: Peak subG1 fraction by flow cytometry after declustering drugs, HeLa cells; assay type: cell-based
Protocol: as §1

[3] = tested on: PC3 cells; experiment: Peak subG1 fraction by flow cytometry after declustering drugs, PC3 cells; assay type: cell-based
Protocol: as §1

[4] = tested on: adult human dermal fibroblasts (HDFs); experiment: Peak subG1 fraction after declustering drugs, non-malignant HDFs; assay type: cell-based; details: for Peak subG1 percents over 48 h: HDF; for death in cancer cell lines vs. HDFs: both concentrations
Protocol: as §1
(§2) To determine whether the CA-inducing activity of declustering drugs is restricted to cancer cells, two non-malignant cell lines, mammary fibrocystic (MCF10A) cells and adult human dermal fibroblasts (HDFs) were treated with these drugs. […] In comparison, 10 and 25 µM RBN increased peak CA over controls in interphase cells (p<0.001 and p=0.001, respectively), with the lower concentration dramatically augmenting peak CA to 56% of cells versus 15% for the higher dose (FIG. 13, panel B).
In HDFs, all the drugs tested increased peak subG1 over controls in a significant fashion (p<0.01 for all) (Table 2). […] Thus, it appears that there may be clinically relevant therapeutic windows for these drugs depending on the type of cancer and the drug dosage.

[5] = tested on: mammary fibrocystic (MCF10A) cells; experiment: Peak subG1 fraction after declustering drugs, non-malignant MCF10A cells; assay type: cell-based; details: for peak subG1 percent compared to controls: MCF10A cells; for Peak subG1 percents over 48 h: MCF10A
Protocol: as §1, §2
Importantly, a therapeutic window exists for several of these agents at the concentrations and in the cell lines tested compared to cancer cells.

[6] = tested on: HeLa cells; experiment: Centrosome amplification (CA) by microscopy, HeLa cells; assay type: cell-based; details: for cells having CA (maximum extent) / increase in CA over controls: mitotic HeLa cells
Protocol: Consequently, CA was assessed in cultures treated with different concentrations of declustering drugs for 6, 12, 18, or 24 h and untreated controls via microscopy. Centrosomes were identified by γ-tubulin and centrin-2 colocalization at discrete foci. […] The peak percent CA detected over 24 h is shown in FIG. 13 (only statistically significant (P<0.05) increases over control values are represented in the Figures). To better understand the “potency” of drug-induced CA with time, the average fold change in CA over controls over 24 h was assessed (FIG. 12, panel A), whereby the extent of CA across time points (i.e., 6, 12, 18, and 24 hr) was averaged and then divided by the extent of CA in control (i.e., 0 hr). All of the drugs at least doubled the peak extent of CA in all cell lines tested (FIG. 12, panel A), although the final extent of CA could be small or large in magnitude depending on the initial centrosomal burden as shown in FIG. 11. […] The peak extent in interphase HeLa cells was somewhat less at 30.7% and 48.1% for 10 and 25 μM RBN, respectively (FIG. 13, panel A). For Nos and BN, there was no major difference in CA levels in interphase versus mitotic cells.

[7] = tested on: MCF10A cells; experiment: Centrosome amplification (CA) by microscopy, MCF10A cells; assay type: cell-based
Protocol: (§3) Consequently, CA was assessed in cultures treated with different concentrations of declustering drugs for 6, 12, 18, or 24 h and untreated controls via microscopy. Centrosomes were identified by γ-tubulin and centrin-2 colocalization at discrete foci.
as §2

[8] = tested on: adult human dermal fibroblasts (HDFs); experiment: Centrosome amplification (CA) by microscopy, HDFs; assay type: cell-based; details: for peak CA: interphase HDFs
Protocol: as §3, §2

[9] = tested on: N1E-115 cells; experiment: Interphase declustering index (DI) in N1E-115 cells; assay type: cell-based, murine; details: 6-h treatment, 25 interphase cells, drugs at their respective IC50 concentrations
Protocol: To evaluate their effect on interphase clustering, N1E-115 cells were treated with these drugs at their respective IC50 concentrations for 0, 3, 6 and 9 h and co-immunostained for γ-tubulin and α-tubulin to evaluate centrosomal spread and microtubule nucleation status, respectively.
Cell cycle phases were further evaluated via lamin A/C immunostaining to distinguish interphase declustering events from prophase centrosomal spread. To quantitate the spread of the interphase centrosomal cluster, a 3D reconstruction of z-stack images of 25 randomly-selected interphase cells from the 6-h treatment group of each drug were generated. By defining an ROI (region of interest) around the interphase centrosomal cluster, the volume of the cluster spread was calculated using Volocity software. Likewise, defining an ROI using the cell periphery provided the cell volume.

[10] = tested on: N1E-115 cells; experiment: Golgi (GM130) and γ-tubulin co-immunostaining of drug-treated N1E-115 cells; assay type: cell-based, murine; details: data not shown
From the text: The Golgi, which is primarily responsible for posttranslational modification and protein sorting, also functions as a microtubule-organizing center (MTOC). It has been hypothesized that supernumerary centrosomes may better organize the Golgi to enhance directional cell migration. To investigate what happens to the Golgi upon declustering drug-induced dispersal of the interphase centrosomal cluster, drug-treated N1E-115 cells were co-immunostained with GM130 (a cis-Golgi matrix protein crucial for maintaining its structure) and γ-tubulin.

[11] = tested on: N1E-115 cells; experiment: Vinculin localization in serum-starved N1E-115 cells; assay type: cell-based, murine; details: serum-starved (SS) cells
From the text: Vinculin stabilizes cell-substrate contacts in neuronal cells undergoing neuritogenesis, while activation by actin-binding proteins mobilizes vinculin to focal adhesions. To determine the localization of vinculin in the neurite extensions and the effect of declustering agents on its localization, N1E-115 cells were immunostained cells for vinculin and stained F-actin using rhodamine-phalloidin.

[12] = tested on: N1E-115 cells; experiment: Ki67 and cleaved caspase-3 immunostaining of serum-starved N1E-115 cells; assay type: cell-based, murine; details: RedBr-Nos 5 μM, Griseofulvin 10 μM, PJ-34 10 μM
[13] = interphase HeLa cells, 25 μM, over 24 h

Row | Compound | Peak subG1 percents over 48 h ([1]; 10 μM) [%] | Peak subG1 percents over 48 h ([1]; 25 μM) [%] | maximum (peak) subG1 fraction relative to control ([1]; 25 μM) [× control] | Peak subG1 percents over 48 h ([2]; 10 μM) [%] | maximum (peak) subG1 fraction relative to control ([2]; 10 μM) [× control] | Peak subG1 percents over 48 h ([2]; 25 μM) [%] | Peak subG1 percents over 48 h ([3]; 10 μM) [%] | Peak subG1 percents over 48 h ([3]; 25 μM) [%] | Peak subG1 percents over 48 h ([4]; 10 μM) [%] | Peak subG1 percents over 48 h ([4]; 25 μM) [%] | death in cancer cell lines vs. HDFs [4] | peak subG1 percent compared to controls [5] | Peak subG1 percents over 48 h ([5]; 10 μM) [%] | Peak subG1 percents over 48 h ([5]; 25 μM) [%] | peak (final) extent of CA [6, 13] [%] | interphase declustering index (DI): ratio of average cluster volume to average cell volume [9] | fragmentation of the interphase Golgi complex [10] | vinculin localization and focal adhesion points [11] | Ki67-positive cells [12] | further results
1 | CN(C)CC(=O)Nc1ccc2[nH]c(=O)c3ccccc3c2c1 [PJ, PJ-34] | 37.0 | 65.0 | 10.4 | 48.5 | 4.8 | 64.4 | 62.4 | 48.4 | 13.6 | 28.2 | more death in all cancer cell lines vs. HDFs | did not cause a significant increase | 6.9 | 9.1 | < 20 | 0.14 | interphase Golgi complex fragmented | less severe | high proportion of Ki67-positive cells | increase in peak CA extent over controls ([6]; interphase HeLa cells, 25 μM): ~20 fold; peak extent of CA ([7]; interphase MCF10A cells, 10 μM): 8 % of cells; peak extent of CA versus controls ([7]; interphase and mitotic MCF10A cells, 25 μM): increased the peak extent of CA in interphase and mitotic cells; extent of CA over controls ([8]; HDFs, any of the concentrations or time points assessed): no significant impact on CA
2 | reduced-9-bromonoscapine [RBN] | 47.0 | 80.8 | 25 | 54.1 | 9 | 75.6 | 80.7 | 73.0 | 35.9 | 39.9 | more death in 231 cells | did increase peak SubG1 | 36.4 | 44.0 | 48.1 | 0.36 | most robust effect | complete internalization of vinculin and complete loss of focal adhesion points | high proportion of Ki67-positive cells | maximum (peak) subG1 fraction relative to control ([3]; 10 μM): 8 × control; peak subG1 / toxicity in MCF10A cells versus cancer cell lines ([5]; 10 μM): smaller peak subG1 in MCF10A cells as compared to 231 cells; susceptibility / toxicity in MCF10A cells versus cancer cell lines ([5]; 25 μM): much greater increases in toxicity to 231 and PC3 cells; peak extent of CA ([6]; interphase HeLa cells, 10 μM, over 24 h): 30.7%; cells having CA (maximum extent) ([6]; 10 μM): 78%; increase in CA over controls ([6]; 10 μM): approximately 40 fold; cells having CA (maximum extent) ([6]; 25 μM): 42%; increase in CA over controls ([6]; 25 μM): ~20 fold; CA / peak extent of CA versus control levels ([7]; interphase and mitotic MCF10A cells, both concentrations (10 and 25 μM), over 24 h): significantly increased the peak extent of CA; peak CA ([8]; 10 μM): 56 % of cells; peak CA ([8]; 25 μM): 15%; extent of CA ([8]; mitotic HDFs, 10 μM): 10%; extent of CA versus controls ([8]; mitotic HDFs, 25 μM): Only 10 but not 25 μM RBN increased the extent of CA in mitotic cells
